Consider 1 compound from patent US12637464B2, “Tetracyclic compounds for treating brain disorders” (The Regents of the University of California, priority 2021, dated 2026).

In one assay the test system is 5-HT2 receptors. The assay is described as follows: Traditional GPCR binding and functional assays (radioligand binding, IP1, β-arrestin). It counts as cell-based, human. As to conditions: FIG. 3B. The protocol: Radioligand Binding Assays (5-HT2AR and 5-HT2CR). The 5-HT2AR and 5-HT2CR competitive radioligand binding assays were performed at Epics Therapeutics S.A. (Belgium, FAST-0505B) using conventional methods. Briefly, competition binding was performed in duplicate in the wells of a 96-well plate (Master Block, Greiner, 786201) containing binding buffer, membrane extracts, radiotracer [^3H]-DOI and test compound. Nonspecific binding was determined by co-incubation with 200-fold excess of cold competitor DOI. The samples were incubated in a final volume of 0.1 mL at a temperature and for a duration optimized for either the 5-HT2AR or 5-HT2CR and then filtered over filter plates. […] The plates were incubated for 15 min on an orbital shaker and then counted with a TopCount™ for 1 min/well. […]
IP1 Assay (5-HT2AR and 5-HT2CR). […] After addition of the lysis buffer containing IP1-d2 and anti-IP1 cryptate detection reagents, plates were incubated for 1 h at room temperature and fluorescence ratios were measured according to the manufacturer's specifications using the HTRF kit. […]
β-Arrestin Activation (PathHunter®). […] PK and EA are then expressed as fusion proteins in U2OS cells, with PK fused to the GPCR of interest, and EA fused to β-Arrestin. […]
Serotonin 5-HT2A In Vitro Radioligand Binding Competition Assay. […] Nonspecific binding is determined by co-incubation with 200-fold excess of cold competitor. […]

In another assay the test system is serotonin receptors. The assay is described as follows: Radioligand binding selectivity panel (Eurofins Discovery). As to conditions: FIG. 3A; binding profile compared to (+)-LSD.
For another assay, the system named is Sprague Dawley rats. The assay is described as follows: Rat forced swim test (FST). Format: in vivo. To be noted: FST 24 h after compound administration; ketamine as comparator. The protocol: Rat Forced Swim Test (FST). This study was performed by Psychogenics (Paramus, NJ). Male Sprague Dawley rats were purchased from Envigo (Indianapolis, IN), and upon receipt, they were assigned unique identification numbers (tail marked) and group housed in ventilated cages with 3 rats per cage. All animals remained housed in groups of three for the remainder of the study. All rats were acclimated to the colony room for up to one week prior to dosing. During the period of acclimation, rats were examined and handled daily, and weighed to assure adequate health and suitability. The room temperature was maintained between 20° C. and 23° C. with a relative humidity of 30%-70%. Lab Rodent Diet 5001 (W.F. Fisher, Cat #11015) and water were provided ad libitum. […] All animals were carefully monitored to ensure their safety in the swim test and any animal unable to maintain a posture with its nose above water was immediately removed from the water and not used further in the study. […] This test lasted for 5 min and was video recorded. A blinded experimenter manually scored the videos for swimming, climbing, and immobility behavior. Scoring of the forced swim test was performed by trained technicians using a time sampling technique in which the animal in the video recorded test was viewed every 5 seconds and the behavior observed was noted (e.g., immobile, swimming, or climbing). […]

For the compound `CCN(CC)C(=O)[C@@H]1C=C2c3cccc4ccn(c34)C[C@H]2N(C)C1` [(+)-JRT], the “agonism of 5-HT2 receptors” value with 5-HT2 receptors is listed as “potent agonist of 5-HT2 receptors”. The “receptor selectivity (binding profile)” value in the assay with serotonin receptors was “highly selective for serotonin receptors”. Further, the “antidepressant-like effects in rat FST” value in the assay on Sprague Dawley rats was “antidepressant-like effects comparable to ketamine at substantially lower doses”.
